Measurements from patent publication US20260139017A1, “COMPOSITIONS AND METHODS USING REELIN IN ALZHEIMER'S DISEASE” (The General Hospital Corporation, priority 2022, published 2026).
“Also recorded” adds a separate entry of the source.

How the values were obtained:
[1] = Isothermal titration calorimetry (ITC) of CTR-RELN with heparin; type: binding; conditions: titrated with 5 μM heparin, vs WT
[2] = Heparin-sepharose affinity column chromatography, NaCl step gradient; type: binding
Description: We tested changes in binding to heparin of RELN variants chromatographically using an optimized version of a protocol previously published by our laboratory (1). Briefly, after equilibration of the heparin column (BioVision 6554-1) at R.T., columns were washed with five volumes of degassed 20 mM TRIS-HCl buffer (pH 7.5). Recombinant C-terminus RELN peptides were produced and purified by Innovagen (Sweden): (WT) […](SEQ ID NO:56), and (H3447R) […](SEQ ID NO:53). One mL of 50 μg/mL peptide (H3447 or WT, and H3447R) was recycled through the column five times and the last flow through collected for further analysis. The column was washed five times with the same buffer and the protein eluted using a 0.05 M step gradient of NaCl in 20 mM Tris-HCl (0-1M, one mL per fraction). To ensure the complete release of the protein, the column was washed with five M NaCl 20 mM Tris-HCl. Three independent experiments were conducted for C-terminus RELN WT and H3447R. All eluted fractions were analyzed spectroscopically by reading the absorbance at 280 nm using Nanodrop 2000 Spectrophotometer. Blank corrected fractions were subsequently analyzed using GraphPad Prism 8.
To assess Reelin-heparin binding affinity, Reelin variants were run on a heparin column with steps of 0.05M in a range of 0.05-1M NaCl over 20 1 mL column volumes in 20 mM Tris HCl, as described in Arboleda et. al 2019 (2). Sample fractions were eluted at an increasing NaCl step size to determine the ionic strength needed to disrupt the binding between Reelin and heparin. Therefore, the stronger the interaction, the higher concentration of salt would be needed to disrupt the bond.

APOER2 = target: T1, APOER2 (Homo sapiens, UniProt Q14114); assay: ELISA cell-free binding of RELN variants to ApoEr2
T1 construct: purchased OnGene (so in the source)
T1 sequence (Q14114 33-963): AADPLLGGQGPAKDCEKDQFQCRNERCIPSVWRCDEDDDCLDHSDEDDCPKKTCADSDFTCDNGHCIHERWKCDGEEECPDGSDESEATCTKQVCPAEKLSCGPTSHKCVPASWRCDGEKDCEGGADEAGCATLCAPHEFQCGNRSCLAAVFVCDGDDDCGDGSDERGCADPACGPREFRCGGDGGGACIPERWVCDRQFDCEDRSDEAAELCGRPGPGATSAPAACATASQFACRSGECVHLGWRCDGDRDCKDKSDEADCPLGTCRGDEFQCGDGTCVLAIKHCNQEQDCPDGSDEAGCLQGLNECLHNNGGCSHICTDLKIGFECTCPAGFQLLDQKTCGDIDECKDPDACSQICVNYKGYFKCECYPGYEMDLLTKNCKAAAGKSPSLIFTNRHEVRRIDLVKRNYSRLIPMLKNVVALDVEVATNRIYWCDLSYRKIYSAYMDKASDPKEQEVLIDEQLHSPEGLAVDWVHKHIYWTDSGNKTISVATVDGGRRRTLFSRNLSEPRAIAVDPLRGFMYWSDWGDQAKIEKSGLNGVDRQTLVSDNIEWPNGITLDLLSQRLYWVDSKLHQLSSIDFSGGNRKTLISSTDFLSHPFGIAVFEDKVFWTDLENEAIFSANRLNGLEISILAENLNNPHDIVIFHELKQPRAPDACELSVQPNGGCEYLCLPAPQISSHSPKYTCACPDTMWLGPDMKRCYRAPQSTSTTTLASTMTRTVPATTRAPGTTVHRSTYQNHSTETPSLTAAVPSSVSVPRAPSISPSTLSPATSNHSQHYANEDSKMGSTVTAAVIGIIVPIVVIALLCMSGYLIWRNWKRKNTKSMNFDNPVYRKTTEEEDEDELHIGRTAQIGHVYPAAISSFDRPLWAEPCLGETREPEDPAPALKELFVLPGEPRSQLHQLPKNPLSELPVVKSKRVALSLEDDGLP
Description: Enzyme-linked immunosorbent assay (ELISA) was used to quantify changes in binding of RELN variants (media-derived full-length or CTR-RELN) to either VLDLr or ApoEr2 following an optimized version of a previously published protocol (6). Briefly, ELISA strips (DY008, R&D Systems) were coated with one ng/μL (100 μL/well) of VLDLr (8444-VL, R&D) or ApoEr2 (TP320903, OnGene) receptors diluted in 25 mM Tris HCl, 140 mM NaCl, […], two mM CaCl2), pH 7.4 (TBS-C buffer). After 18 h at four ° C. incubation, plates were blocked one h with three % BSA (22070008-6, Bioworld), 0.05% Tween-20 (Sigma Aldrich) TBS-C buffer. We assessed binding via incubation with 100 μL/well of serial dilutions of recombinant RELN protein (Ser1221-Gln2666, 8546-MR-050, R&D) or RELN variants in TBS-C buffer for one hour at room temperature. For detection, we used goat anti-mouse RELN primary antibody (LS-C793521-100, LS-Bio, 1:2,000, 100 μL/well) as primary antibody for one h at R.T. and (1:10,000; 100 μL/well, donkey anti-goat IgG H&L, HRP, ab6885, Abcam) as secondary antibody for 30 min. at R.T. Between each of the previous steps, plates were washed four times with TBS-C buffer (200 μL/well). Plates were washed three times prior to initiating the colorimetric reaction (DY008, R&D Systems). Stop solution (50 μL/well, DY008, R&D Systems) was added upon five min. incubation and the absorbance of the samples was measured at 450 nm using the Synergy 2 microplate reader (BioTek Instruments). Processing and analysis of the data was done using Gen5 1.11 software and GraphPad Prism, respectively.

RKQNYMMNFSRQHGLRRFYNRRRRSLRRYP [CTR-RELN H3447R]
thermodynamics of heparin interaction [1]: enhanced interactions
NaCl concentration of peak eluted fraction from heparin column ([2]; 0.05 M NaCl step gradient in 20 mM Tris HCl, UV 280 nm): 0.7 M NaCl
binding to and release from heparin column ([2]; affinity chromatography, NaCl gradient): bound to heparin; also recorded: required higher NaCl salt concentrations to be released
binding to APOER2 (APOER2): unable to bind directly
